Read-outs that look alike come from different tables or passages of the source.
Legend:
Test in all cases: microbe, parasite or virus in culture
[1] = system: stable HCV 1a RLuc replicon cells (genotype 1a H77 replicon); type: cell-based; details: Hepatitis C virus
[2] = system: stable HCV 1b RLuc replicon cells (genotype 1b Con1 replicon); type: cell-based
[3] = system: stable HCV 2a JFH-1 Rluc replicon cells (L31 present in NS5A); type: cell-based
[4] = system: NS5A chimeric genotype 1b Con1 replicon with genotype 3a S52 strain NS5A gene; type: cell-based, HCV
In short: (§1)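 Con1-based 3a and 4a chimeras carried a Pi-RLuc reporter and were transiently transfected into Huh-Lunet cells; the JFH-1-based 2b chimera (RLuc-Neo) was used transiently or as stable replicon cells.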

[5] = system: NS5A chimeric genotype 2a JFH-1 replicon with genotype 2a J6 strain NS5A gene (M31 present); type: cell-based, HCV
[6] = system: NS5A chimeric genotype 2a JFH-1 replicon with genotype 2b MD2b-1 strain NS5A gene (M31 present); type: cell-based, HCV
In short: as §1

[7] = system: NS5A chimeric genotype 1b Con1 replicon with genotype 4a ED43 strain NS5A gene; type: cell-based, HCV
[8] = system: 1a Pi-Rluc replicon with Q30R in genotype 1a NS5A; type: cell-based, HCV
In short: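 Q30R introduced by site-directed mutagenesis into genotype 1a Pi-RLuc replicon; RNA transiently transfected into Huh-7-derived cured-51 cells.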

[9] = Hepatitis C virus, read-out: 1b (nM)
[10] = Hepatitis C virus, read-out: 2a JFH
[11] = Hepatitis C virus, read-out: 2a JFH (nM)
[12] = Hepatitis C virus, read-out: 3a
[13] = Hepatitis C virus, read-out: 3a (nM)
[14] = Hepatitis C virus, read-out: 2a J6
[15] = Hepatitis C virus, read-out: 2a J6 (s) (nM)
[16] = Hepatitis C virus, read-out: 2a Jb (t) (nM)
[17] = Hepatitis C virus, read-out: 2b
[18] = Hepatitis C virus, read-out: 2b (s) (nM)
[19] = Hepatitis C virus, read-out: 2b (t) (nM)
[20] = Hepatitis C virus, read-out: 4a
[21] = Hepatitis C virus, read-out: 4a (s) (nM)
[22] = Hepatitis C virus, read-out: 4a (t) (nM)
[23] = Hepatitis C virus, read-out: 1a Q30R
[24] = Hepatitis C virus, read-out: 1a Q30R (nM)

Row | Molecule | EC50 ([1]; read-out: 1a) [nM] | EC50 ([1]; read-out: 1a (nM)) [nM] | EC50 [2, 9] [nM] | EC50 [3, 10] [nM] | EC50 [3, 11] [nM] | EC50 [4, 12] [nM] | EC50 [4, 13] [nM] | EC50 [5, 14] [nM] | EC50 [5, 15] [nM] | EC50 [5, 16] [nM] | EC50 [6, 17] [nM] | EC50 [6, 18] [nM] | EC50 [6, 19] [nM] | EC50 [7, 20] [nM] | EC50 [7, 21] [nM] | EC50 [7, 22] [nM] | EC50 [8, 23] [nM] | EC50 [8, 24] [nM] | also measured
1 | COC[C@H]1C[C@@H](c2nc3ccc4cc5c(cc4c3[nH]2)OCc2cc(-c3cnc([C@@H]4CC6C[C@H]6N4C(=O)[C@@H](NC(=O)OC)C(C)C)[nH]3)ccc2-5)N(C(=O)[C@H](NC(=O)OC)c2ccccc2)C1 (stereo partly drawn) [Example LT, methyl{2-[2-{9-[2-(2-{2-[(methoxycarbonyl)amino]-3-methylbutanoyl}-2-azabicyclo[3.1.0]hex-3-yl)-1H-imidazol-5-yl]-1,11-dihydroisochromeno[4′,3′:6,7]naphtho[1,2-d]imidazol-2-yl}-4-(methoxymethyl)pyrrolidin-1-yl]-2-oxo-1-phenylethyl}carbamate] | < 1 | 0.009 | 0.016 | < 1 | 0.004 | < 1 | 0.012 | < 1 | 0.047 | 0.01 | < 1 | 0.039 | 0.009 | < 1 | 0.009 | 0.015 | < 1 | 0.01 | 
2 | COC(=O)N[C@H](C(=O)N1CCC[C@H]1c1nc2c(ccc3cc4c(cc32)OCc2cc(-c3cnc([C@@H]5CCCN5C(=O)[C@H](NC(=O)OC)c5ccccc5)[nH]3)ccc2-4)[nH]1)C(C)C [Example MD] | < 1 | 0.035 | 0.033 | < 1 | 0.006 | < 1 | 0.006 | < 1 | 0.439 | 0.073 | < 1 | 0.038 | 0.016 | < 1 | 0.035 | 0.011 | < 1 | 0.192 | 
3 | dimethyl (2S,2′S)-1,1′-((2S,2′S)-2,2′1-pyrrolidin-2-yl)-5H-naphtho[c,g]chromeno[8,9-d]imidazol-9-yl)-1H-imidazol-2-yl)pyrrolidin-1-yl))bis(3-methyl-1-oxobutane-2,1-diyl)dicarbamate [Example MC] |  |  |  |  |  |  |  |  |  |  |  |  |  |  |  |  |  |  | EC50 ([2]; read-out: 1b): 0.017 nM; EC50 ([3]; genotype 2a JFH, EC50 range, read-out: 2a JFH): < 1 nM; EC50 ([3]; genotype 2a JFH, read-out: 2a JFH): 0.004 nM; EC50 ([4]; genotype 3a, EC50 range, read-out: 3a): < 1 nM; EC50 ([4]; genotype 3a, read-out: 3a): 0.004 nM; EC50 ([5]; genotype 2a J6, EC50 range, transiently transfected cells (t), else stably replicating cells (s), read-out: 2a J6): 1 to 4.99 nM; EC50 ([5]; stably replicating cells (s), read-out: 2a J6 (s)): 3.52 nM; EC50 ([5]; transiently transfected cells (t), read-out: 2a Jb (t)): 1.16 nM; EC50 ([6]; genotype 2b, EC50 range, transiently transfected cells (t), else stably replicating cells (s), read-out: 2b): < 1 nM; EC50 ([6]; stably replicating cells (s), read-out: 2b (s)): 0.375 nM; EC50 ([6]; transiently transfected cells (t), read-out: 2b (t)): 0.162 nM; EC50 ([7]; genotype 4a, EC50 range, transiently transfected cells (t), else stably replicating cells (s), read-out: 4a): < 1 nM; EC50 ([7]; stably replicating cells (s), read-out: 4a (s)): 0.028 nM; EC50 ([7]; transiently transfected cells (t), read-out: 4a (t)): 0.008 nM; EC50 ([8]; 1a Q30R resistance mutant, EC50 range, read-out: 1a Q30R): < 1 nM; EC50 ([8]; 1a Q30R resistance mutant, read-out: 1a Q30R): 0.99 nM
4 | COC(=O)N[C@H](C(=O)N1CCC[C@H]1c1ncc(-c2ccc3c(c2)COc2cc4c(cc2-3)CCc2[nH]c([C@@H]3CCCN3C(=O)[C@H](NC(=O)OC)c3ccccc3)nc2-4)[nH]1)C(C)C [Example MG] | < 1 | 0.054 | 0.055 | < 1 | 0.012 | < 1 | 0.01 | < 1 | 2.29 | 0.337 | < 1 | 0.07 |  | < 1 | 0.08 | 0.024 | < 1 | 0.663 | 
